target: T1, STAT3 (Homo sapiens, UniProt P40763); assay: STAT3 HiBiT degradation assay (Nano-Glo HiBiT lytic detection) in transfected A549 cells; format: cell-based; conditions: 24 h compound incubation, read-out: STAT3 HiBIT A549 degradation 24 h: Average external-Abs DC50
T1 construct: expressed in transfected cells; host or cells: A549
Summary of the method: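 Transfected A549 cells (~2000/well) treated 24 h at 37° C with compound in 3-fold, 10-point dilution series. HiBiT-tagged STAT3 remaining measured by Nano-Glo HiBiT lytic luminescence, normalised to negative and positive controls; DC50 from four-parameter curve fit.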

T1 sequence (P40763 whole entry): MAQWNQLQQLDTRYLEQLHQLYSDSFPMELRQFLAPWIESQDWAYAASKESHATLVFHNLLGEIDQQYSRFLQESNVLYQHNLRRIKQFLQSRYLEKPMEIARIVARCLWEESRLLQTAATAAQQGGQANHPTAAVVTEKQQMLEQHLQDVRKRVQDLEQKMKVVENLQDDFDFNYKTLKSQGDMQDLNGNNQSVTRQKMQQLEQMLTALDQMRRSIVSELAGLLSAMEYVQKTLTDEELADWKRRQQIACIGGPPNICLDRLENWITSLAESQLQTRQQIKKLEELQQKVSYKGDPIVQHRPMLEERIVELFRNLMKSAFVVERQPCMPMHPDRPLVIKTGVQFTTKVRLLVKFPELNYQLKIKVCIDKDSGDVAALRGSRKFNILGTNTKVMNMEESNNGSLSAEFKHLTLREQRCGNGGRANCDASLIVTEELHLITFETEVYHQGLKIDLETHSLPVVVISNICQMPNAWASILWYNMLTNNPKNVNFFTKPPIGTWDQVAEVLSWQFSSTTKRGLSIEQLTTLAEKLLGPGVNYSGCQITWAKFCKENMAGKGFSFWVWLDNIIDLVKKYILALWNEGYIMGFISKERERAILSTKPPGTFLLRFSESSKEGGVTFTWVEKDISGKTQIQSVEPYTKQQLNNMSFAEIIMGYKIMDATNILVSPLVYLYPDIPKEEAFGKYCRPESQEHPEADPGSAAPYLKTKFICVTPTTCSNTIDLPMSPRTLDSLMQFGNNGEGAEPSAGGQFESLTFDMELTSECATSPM

First: Cn1c(=O)n(C2CCC(=O)NC2=O)c2ccc(C[C@H]3CC[C@H](CC(=O)N4CC[C@H]5CC[C@@H](C(=O)N[C@@H](CCC(N)=O)C(=O)NCc6ccc(S(C)(=O)=O)cc6)N5C(=O)[C@@H](NC(=O)c5cc6cc(C(=O)P(=O)(O)O)ccc6[nH]5)C4)CC3)cc21 (some centres unmarked) [I-74]
Second: Cn1c(=O)n(C2CCC(=O)NC2=O)c2ccc(C[C@H]3CC[C@@H](CC(=O)N4CC[C@H]5CC[C@@H](C(=O)N[C@@H](CCC(N)=O)C(=O)NCc6ccc(S(C)(=O)=O)cc6)N5C(=O)[C@@H](NC(=O)c5cc6cc(C(=O)O)ccc6[nH]5)C4)CC3)cc21 (stereo partly drawn) [I-75, 2-[[(5S,8S,10aR)-8-[[(1S)-3-carbamoyl-1-[[(4-methanesulfonylphenyl)methyl]carbamoyl]propyl]carbamoyl]-6-oxo-3-[2-[(1s,4s)-4-[[1-(2,6-dioxopiperidin-3-yl)-3-methyl-2-oxo-1,3-benzodiazol-5-yl]methyl]cyclohexyl]acetyl]-octahydropyrrolo[1,2-a][1,5]diazocin-5-yl]carbamoyl]-1H-indole-5-carboxylic acid]
The DC50 of the first is lower: 10 to 100 nM for the first, > 1000 nM for the second.

`Cn1c(=O)n(C2CCC(=O)NC2=O)c2ccc(CCCCCCC(=O)N3CC[C@H]4CC[C@@H](C(=O)N[C@@H](CCC(N)=O)C(=O)NCc5ccc(S(C)(=O)=O)cc5)N4C(=O)[C@@H](NC(=O)c4cc5cc(C(=O)P(=O)(O)O)ccc5[nH]4)C3)cc21` (some centres unmarked) [I-76] and `Cn1c(=O)n(C2CCC(=O)NC2=O)c2ccc(CCCCCCc3cc4c5c(c3)C[C@@H](C(=O)N[C@@H](CCC(N)=O)C(=O)NCc3ccc(S(C)(=O)=O)cc3)N5C(=O)[C@@H](NC(=O)c3cc5cc(C(=O)P(=O)(O)O)ccc5[nH]3)CC4)cc21` (stereo partly drawn) [I-81, (2-(((3S,6S)-6-(((S)-5-amino-1l-((4-(methylsulfonyl)benzyl)amino)-1,5-dioxopentan-2-yl)carbamoyl)-9-(6-(1-(2,6-dioxopiperidin-3-yl)-3-methyl-2-oxo-2,3-dihydro-1H-benzo[d]imidazol-5-yl)hexyl)-4-oxo-1,2,3,4,6,7-hexahydroazepino[3,2,1-hi]indol-3-yl)carbamoyl)-1H-indole-5-carbonyl)phosphonic acid] fall in the same range of DC50: 10 to 100 nM for the first, 10 to 100 nM for the second.

`CC(=O)N1CC[C@H]2CC[C@@H](C(=O)N[C@@H](CCC(N)=O)COc3cc(F)cc(CCCC(=O)N[C@H](C(=O)N4C[C@H](O)C[C@H]4C(=O)N[C@@H](C)c4ccc(-c5scnc5C)cc4)C(C)(C)C)c3Cl)N2C(=O)[C@@H](NC(=O)c2cc3cc(C(=O)P(=O)(O)O)ccc3[nH]2)C1` [I-77] and `CC(=O)N1CC[C@H]2CC[C@@H](C(=O)N[C@@H](CCC(N)=O)COc3cc(F)cc(CCCC(=O)N[C@H](C(=O)N4C[C@H](O)C[C@H]4C(=O)N[C@@H](C)c4ccc(-c5scnc5C)cc4)C(C)(C)C)c3F)N2C(=O)[C@@H](NC(=O)c2cc3cc(C(=O)P(=O)(O)O)ccc3[nH]2)C1` [I-79] cannot be ordered by DC50: < 10 nM for the first, < 10 nM for the second.

`CC(=O)N1CC[C@H]2CC[C@@H](C(=O)N[C@@H](CCC(N)=O)COc3cc(C)cc(CCCC(=O)N[C@H](C(=O)N4C[C@H](O)C[C@H]4C(=O)N[C@@H](C)c4ccc(-c5scnc5C)cc4)C(C)(C)C)c3F)N2C(=O)[C@@H](NC(=O)c2cc3cc(C(=O)P(=O)(O)O)ccc3[nH]2)C1` [I-78] and `CC(=O)N1CC[C@H]2CC[C@@H](C(=O)N[C@@H](CCC(N)=O)COc3cc(C)cc(CCCC(=O)N[C@H](C(=O)N4C[C@H](O)C[C@H]4C(=O)N[C@@H](C)c4ccc(-c5scnc5C)cc4)C(C)(C)C)c3Cl)N2C(=O)[C@@H](NC(=O)c2cc3cc(C(=O)P(=O)(O)O)ccc3[nH]2)C1` [I-80] cannot be ordered by DC50: < 10 nM for the first, < 10 nM for the second.

`COC(=O)N1CC[C@H]2CC[C@@H](C(=O)N[C@@H](CCC(N)=O)COc3cccc(CCCC(=O)N[C@H](C(=O)N4C[C@H](O)C[C@H]4C(=O)N[C@@H](C)c4ccc(-c5scnc5C)cc4)C(C)(C)C)c3Cl)N2C(=O)[C@@H](NC(=O)c2cc3cc(C(F)(F)P(=O)(O)O)ccc3[nH]2)C1` [I-84] and `COC(=O)N1CC[C@H]2CC[C@@H](C(=O)N[C@@H](CCC(N)=O)COc3cccc(CCCC(=O)N[C@H](C(=O)N4C[C@H](O)C[C@H]4C(=O)N[C@@H](C)c4ccc(-c5scnc5C)cc4)C(C)(C)C)c3Cl)N2C(=O)[C@@H](NC(=O)c2cc3cc(C(=O)P(=O)(O)O)ccc3[nH]2)C1` [I-87] cannot be ordered by DC50: > 1000 nM for the first, > 1000 nM for the second.

`CC(C)c1ccc(CNC(=O)[C@H](CCC(=O)O)NC(=O)[C@@H]2CC[C@@H]3CCN(C(=O)[C@H]4CC[C@@H](CCc5ccc6c(c5)n(C)c(=O)n6C5CCC(=O)NC5=O)CC4)C[C@H](NC(=O)c4cc5cc(C(=O)P(=O)(O)O)ccc5[nH]4)C(=O)N32)cc1` (stereo partly drawn) [I-96, (4S)-4-[[(5S,8S,10aR)-6-oxo-5-[5-(phosphonocarbonyl)-1H-indole-2-amido]-3-[(1s,4s)-4-[2-[1-(2,6-dioxopiperidin-3-yl)-3-methyl-2-oxo-1,3-benzodiazol-5-yl]ethyl]cyclohexanecarbonyl]-octahydropyrrolo[1,2-a][1,5]diazocin-8-yl]formamido]-4-[[(4-isopropylphenyl)methyl]carbamoyl]butanoic acid] and `CC(C)c1ccc(CNC(=O)[C@H](CCC(N)=O)NC(=O)[C@@H]2CC[C@@H]3CCN(C(=O)[C@H]4CC[C@@H](CCc5ccc6c(c5)n(C)c(=O)n6C5CCC(=O)NC5=O)CC4)C[C@H](NC(=O)c4cc5cc(C(F)(F)P(=O)(O)O)ccc5s4)C(=O)N32)cc1` (some centres unmarked) [I-97] cannot be ordered by DC50: > 1000 nM for the first, > 1000 nM for the second.

`CNC(=O)N1CC[C@H]2CC[C@@H](C(=O)N[C@@H](CCC(N)=O)COc3cccc(CCCC(=O)N[C@H](C(=O)N4C[C@H](O)C[C@H]4C(=O)N[C@@H](C)c4ccc(-c5scnc5C)cc4)C(C)(C)C)c3Cl)N2C(=O)[C@@H](NC(=O)c2cc3cc(C(F)(F)P(=O)(O)O)ccc3s2)C1` [I-98] was tested, and the DC50 was > 1000 nM.

same assay, conditions: read-out: STAT3 HiBIT A549 degradation 24 h: Average external-Abs DC50, 24 h compound incubation

`CC(=O)N1CC[C@H]2CC[C@@H](C(=O)N[C@@H](CCC(N)=O)COc3cccc(CCCC(=O)N[C@H](C(=O)N4C[C@H](O)C[C@H]4C(=O)N[C@@H](C)c4ccc(-c5scnc5C)cc4)C(C)(C)C)c3Cl)N2C(=O)[C@@H](NC(=O)c2cc3cc(C(F)(F)P(=O)(O)O)ccc3s2)C1` [I-83] and `Cc1ncsc1-c1ccc([C@H](C)NC(=O)[C@@H]2C[C@@H](O)CN2C(=O)[C@@H](NC(=O)CCCc2cccc(OC[C@H](CCC(N)=O)NC(=O)[C@@H]3CC[C@@H]4CCCC[C@H](NC(=O)c5cc6cc(C(F)(F)P(=O)(O)O)ccc6s5)C(=O)N43)c2Cl)C(C)(C)C)cc1` [I-89] cannot be ordered by DC50: > 1000 nM for the first, > 1000 nM for the second.

`COC(=O)N1CC[C@H]2CC[C@@H](C(=O)N[C@@H](CCC(N)=O)COc3cccc(CCCC(=O)N[C@H](C(=O)N4C[C@H](O)C[C@H]4C(=O)N[C@@H](C)c4ccc(-c5scnc5C)cc4)C(C)(C)C)c3Cl)N2C(=O)[C@@H](NC(=O)c2cc3cc(C(=O)P(=O)(O)O)ccc3s2)C1` [I-86] and `Cc1ncsc1-c1ccc([C@H](C)NC(=O)[C@@H]2C[C@@H](O)CN2C(=O)[C@@H](NC(=O)CCCc2cccc(OC[C@H](CCC(N)=O)NC(=O)[C@@H]3CC[C@@H]4CCCC[C@H](NC(=O)c5cc6cc(C(=O)P(=O)(O)O)ccc6s5)C(=O)N43)c2Cl)C(C)(C)C)cc1` [I-88] cannot be ordered by DC50: > 1000 nM for the first, > 1000 nM for the second.

— patent US20240016942A1, “STAT DEGRADERS AND USES THEREOF” (Kymera Therapeutics, Inc., priority 2020, published 2024)
